Results as given in patent publication US20040250469A1, “Method for marking hydrocarbons with substituted anthraquinones” (priority 2003, published 2004).

Columns and labels:
[1] = Absorption maximum and extinction measurement (absorbance, 1 cm path length, 10 mg/L solutions); assay type: physicochemical; details: for extinction value: 10 mg/L solution, 1 cm path length; for molar extinction coefficient (ε): at λmax, toluene
Method: All percentages are weight percentages, unless otherwise indicated. Concentrations in parts per million (“ppm”) are calculated on a weight/volume basis. When a solvent is not specified for measurement of an absorption maximum, a hydrocarbon solvent is preferred. Extinction values are determined by measuring absorption in absorbance units (“AU”) with a 1 cm path length on 10 mg/L solutions. The term “petroleum hydrocarbons” refers to products having a predominantly hydrocarbon composition, although they may contain minor amounts of oxygen, nitrogen, sulfur or phosphorus; petroleum hydrocarbons are derived from petroleum refining processes; they include, for example, lubricating oil, hydraulic fluid, brake fluid, gasoline, diesel fuel, kerosene, jet fuel and heating oil. An “alkyl” group is a hydrocarbyl group having from one to twenty carbon atoms in a linear, branched or cyclic arrangement. Alkyl groups optionally have one or more double or triple bonds. Substitution on alkyl groups of one or more halo, hydroxy or alkoxy groups is permitted; alkoxy groups may in turn be substituted by one or more halo substituents. Preferably, alkyl groups have no halo or alkoxy substituents, and most preferably, alkyl groups are saturated and unsubstituted. A “heteroalkyl” group is an alkyl group in which at least one carbon has been replaced by O, NR, or S, wherein R is hydrogen, alkyl, aryl or aralkyl. An “aryl” group is a substituent derived from an aromatic hydrocarbon compound. An aryl group has a total of from six to twenty ring atoms, and has one or more rings which are separate or fused. An “aralkyl” group is an “alkyl” group substituted by an “aryl” group. A “heterocyclic” group is a substituent derived from a heterocyclic compound having from five to twenty ring atoms, at least one of which is nitrogen, oxygen or sulfur. […] Substitution on aryl or heterocyclic groups of one or more of the following groups: halo, cyano, nitro, hydroxy, alkoxy, alkyl, heteroalkyl, alkanoyl, amino, or amino substituted by one or more of alkyl, aryl, aralkyl, heterocyclic, heteroalkyl or alkanoyl is permitted, with substitution by one or more halo groups being possible on alkyl, heteroalkyl, alkanoyl or alkoxy groups. […] In one preferred embodiment of the invention, aryl and heterocyclic groups are unsubstituted or substituted only by alkyl groups. An “aromatic heterocyclic” group is a heterocyclic group derived from an aromatic heterocyclic compound.
The absorption maxima, λmax, of several substituted anthraquinone dyes of formula (I), measured in xylene, are provided in the following table. For all of the dyes listed, R^4 and R^6 are hydrogen.

Solubility in xylene = assay type: physicochemical; details: weight percentage
Method: A mixture of leuco-1,4,5,8-tetrahydroxyanthraquinone (5.91 g), sodium dithionite (1.09 g) and 1-hexanol (175.2 g) was stirred while adding 2-ethylhexylamine (24.08 g). The mixture was heated to reflux (148-152° C.), maintained at reflux for 6-6.5 hours, and then cooled to ambient temperature. The precipitate was collected and washed thoroughly with methanol and water, and dried. The yield of dried isolated product was 7.0 g. Approximately another 1.9 g was present in the mother liquor, for a total yield of 8.9 g (90%). This material has a maximum absorption band (λmax) at a wavelength of 692 nm in xylene, or 688 nm in cyclohexane, with an extinction value of 0.640 AU in xylene and 0.660 AU in cyclohexane for a 10 mg/L solution. The solubility of the title compound in xylene is approximately 20%.

Compound	maximum absorption band (λmax) wavelength ([1]; in xylene)	extinction value ([1]; in xylene)	maximum absorption band (λmax) wavelength ([1]; in toluene)	further results
CCCCc1ccc(Nc2ccc(Nc3ccc(CCCC)cc3)c3c2C(=O)c2c(Nc4ccc(CCCC)cc4)c(C#N)c(C#N)c(Nc4ccc(CCCC)cc4)c2C3=O)cc1 [1,4,5,8-tetra-(4′-n-butylphenylamino)-2,3-dicyanoanthraquinone]	835 nm	0.342 AU	–	–
O=C1c2c(Nc3ccccc3)ccc(Nc3ccccc3)c2C(=O)c2c(Nc3ccccc3)ccc(Nc3ccccc3)c21 [Example 5, 1,4,5,8-tetra(phenylamino)anthraquinone]	–	–	750 nm	molar extinction coefficient (ε) [1]: ~30,500
CCCCc1ccc(Nc2c(C#N)c(C#N)c(Nc3ccc(CCCC)cc3)c3c2C(=O)c2c(Nc4ccc(CCCC)cc4)c(C#N)c(C#N)c(Nc4ccc(CCCC)cc4)c2C3=O)cc1 [1,4,5,8-tetra(4′-n-butylphenylamino)-2,3,6,7-tetracyanoanthraquinone]	900 nm	0.19 AU	–	–
CCCCC(CC)CNc1ccc(NCC(CC)CCCC)c2c1C(=O)c1c(O)ccc(O)c1C2=O (centres unmarked) [Example 1, 1,4-di-(2-ethylhexylamino)-5,8-dihydroxyanthraquinone]	692 nm	0.640 AU	–	maximum absorption band (λmax) wavelength ([1]; in cyclohexane): 688 nm; extinction value ([1]; in cyclohexane): 0.660 AU; λmax, nm ([1]; measured in xylene, dyes of formula (I), R^4 and R^6 hydrogen): 692 nm; solubility in xylene (Solubility in xylene): approximately 20%
CCCCNc1c(C#N)c(C#N)c(NCCCC)c2c1C(=O)c1ccccc1C2=O [Example 2, 1,4-di-(n-butylamino)-2,3-dicyanoanthraquinone]	700 nm	0.23 AU	–	–
CCCCc1ccc(Nc2ccc(Nc3ccc(CCCC)cc3)c3c2C(=O)c2c(Nc4ccc(CCCC)cc4)ccc(Nc4ccc(CCCC)cc4)c2C3=O)cc1 [Example 6, 1,4,5,8-tetra(4-n-butylphenylamino)anthraquinone]	–	–	762 nm	molar extinction coefficient (ε) [1]: ~36,900
CCCCc1ccc(Nc2cccc3c2C(=O)c2c(Nc4ccc(CCCC)cc4)ccc(Nc4ccc(CCCC)cc4)c2C3=O)cc1 [Example 4, 1,4,5-tri(4-n-butylphenylamino)anthraquinone]	–	–	675 nm	–
